Measured values reported in article PMC3390344, “Antibacterial Activity and Mechanism of a Scorpion Venom Peptide Derivative In Vitro and In Vivo” (PLoS ONE, 2012).
Ends that are not written are not given here.

Experiments:
E. coli AB94012 = test: Transmission electron microscopy; assay type: cell-based; conditions: E. coli AB94012, 1×MIC, treated for 2 min, semi-thin sections
Experimental: (§1) Figure 6 Transmission electron microscopy of S. aureus and E. coli treated with Kn2-7. (A) Transmission electron microscopy was performed with Kn2-7-treated S. aureus. (A1), (A2) and (A3) were negative controls. (A4), (A5) and (A6) show S. aureus treated with Kn2-7 for 2 min. (A7), (A8) and (A9) show S. aureus treated with BmKn2 for 2 min. (B) Transmission electron microscopy was performed with Kn2-7-treated E. coli. (B1), (B2) and (B3) were the negative controls. (B4), (B5) and (B6) show E. coli treated with Kn2-7 for 2 min. (B7), (B8) and (B9) show E. coli treated with BmKn2 for 2 min.
(§2) Overnight-cultured S. aureus AB94004 and E. coli AB94012 were transferred to LB medium and cultured to the exponential phase. A 200 µl aliquot of the peptide solution was added to 800 µl of the bacterial suspensions at the final concentration of 1×MIC. The samples were cut into semi-thin sections. Microscopy was performed using a HITACHI H-8100 Transmission Electron Microscope.

S. aureus AB94004 = test: Transmission electron microscopy; assay type: cell-based; conditions: 1×MIC, treated for 2 min, semi-thin sections
Experimental: as §1, §2

In the case of FIKRIARLLRKIF [Kn2-7], the “Structural changes of cell wall and membrane (TEM)” value (E. coli AB94012) was “formed microspheres that surrounded the bacteria” and the “Structural changes of cell wall and membrane (TEM)” value (S. aureus AB94004) was “disrupted immediately”.
